# Test results taken from article PMC11514582, “Leveraging the Aggregated Protein Dye YAT2150 for Malaria Chemotherapy” (Pharmaceutics, 2024).
# Key:
# [1] = Cytotoxicity assay in A2780 (MTT); assay type: cell-based; conditions: human, A2780 cells, read-out: A2780 inhibition (CC50)
# Procedure: THP-1 human acute monocytic leukemia cells and NCI-H460 human lung carcinoma cells were grown in RPMI supplemented with 10% FBS. Hep-G2 human hepatocellular carcinoma cells were cultured in Eagle’s minimum essential medium (EMEM) supplemented with 10% FBS. A2780 human ovarian carcinoma cells were grown in RPMI supplemented with 10% FBS and 2 mM L-glutamine. MCF-7 human breast adenocarcinoma cells were cultured in EMEM containing 2 mM L-glutamine and Earle’s balanced salt solution adjusted with 1.5 g/L sodium bicarbonate, 0.1 mM non-essential amino acids, and 1 mM sodium pyruvate and supplemented with 10% FBS. […] Except for Caco-2 and HUVEC, inhibition of cell growth was evaluated using a protocol based on monitoring the transformation into formazan of the tetrazolium salt of MTT (3-(4,5-dimethylthiazol-2-yl)-2,5-diphenyltretrazolium bromide) by metabolically active cells. […] After 96 further h of incubation in the same conditions, 10 µL of a 5 mg/mL MTT solution in PBS was added to each sample, and the incubation was resumed for another 4 h. […] The absorbance measurement range was framed between one sample containing 4000 cells in plain growth medium (to determine the stable cell concentration) and another sample containing an equal cell number in growth medium supplemented with growth factors (to measure the maximum cell growth at 96 h).
# [2] = Cytotoxicity across seven human cell lines; assay type: cell-based; conditions: range over cell types, read-out: CC50 in seven different human cell lines
# Procedure: THP-1 human acute monocytic leukemia cells and NCI-H460 human lung carcinoma cells were grown in RPMI supplemented with 10% FBS. Hep-G2 human hepatocellular carcinoma cells were cultured in Eagle’s minimum essential medium (EMEM) supplemented with 10% FBS. A2780 human ovarian carcinoma cells were grown in RPMI supplemented with 10% FBS and 2 mM L-glutamine. MCF-7 human breast adenocarcinoma cells were cultured in EMEM containing 2 mM L-glutamine and Earle’s balanced salt solution adjusted with 1.5 g/L sodium bicarbonate, 0.1 mM non-essential amino acids, and 1 mM sodium pyruvate and supplemented with 10% FBS. […] Except for Caco-2 and HUVEC, inhibition of cell growth was evaluated using a protocol based on monitoring the transformation into formazan of the tetrazolium salt of MTT (3-(4,5-dimethylthiazol-2-yl)-2,5-diphenyltretrazolium bromide) by metabolically active cells. […] The incubation was continued for an additional 12 to 14 h, and absorbance was measured at 595 nm (Tecan M1000 Infinite® Pro, Tecan Trading AG, Männedorf, Switzerland). The absorbance measurement range was framed between one sample containing 4000 cells in plain growth medium (to determine the stable cell concentration) and another sample containing an equal cell number in growth medium supplemented with growth factors (to measure the maximum cell growth at 96 h). […]
# CYP1A2 = target: T1, CYP1A2 (Homo sapiens, UniProt P05177); conditions: cited from earlier work
# T1 sequence (P05177 1-516): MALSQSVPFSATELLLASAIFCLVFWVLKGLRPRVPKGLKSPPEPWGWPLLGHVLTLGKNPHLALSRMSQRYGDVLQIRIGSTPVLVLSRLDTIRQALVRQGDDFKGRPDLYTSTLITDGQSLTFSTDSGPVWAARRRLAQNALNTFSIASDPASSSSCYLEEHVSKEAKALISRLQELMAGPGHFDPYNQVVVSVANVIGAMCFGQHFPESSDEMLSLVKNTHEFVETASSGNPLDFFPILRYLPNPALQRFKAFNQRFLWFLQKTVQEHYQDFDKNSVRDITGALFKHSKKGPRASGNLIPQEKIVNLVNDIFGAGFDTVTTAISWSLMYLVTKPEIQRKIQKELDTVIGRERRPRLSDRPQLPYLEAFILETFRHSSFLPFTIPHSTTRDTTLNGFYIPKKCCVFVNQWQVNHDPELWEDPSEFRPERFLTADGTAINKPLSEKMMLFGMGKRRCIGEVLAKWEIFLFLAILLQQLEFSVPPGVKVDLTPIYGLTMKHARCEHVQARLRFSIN
# [3] = cited from earlier work
# [4] = target: recombinant human cytochrome P450 enzyme CYP3A4 (Homo sapiens, UniProt P08684); assay: biochemical
# Chain of recombinant human cytochrome P450 enzyme CYP3A4 (P08684 whole entry): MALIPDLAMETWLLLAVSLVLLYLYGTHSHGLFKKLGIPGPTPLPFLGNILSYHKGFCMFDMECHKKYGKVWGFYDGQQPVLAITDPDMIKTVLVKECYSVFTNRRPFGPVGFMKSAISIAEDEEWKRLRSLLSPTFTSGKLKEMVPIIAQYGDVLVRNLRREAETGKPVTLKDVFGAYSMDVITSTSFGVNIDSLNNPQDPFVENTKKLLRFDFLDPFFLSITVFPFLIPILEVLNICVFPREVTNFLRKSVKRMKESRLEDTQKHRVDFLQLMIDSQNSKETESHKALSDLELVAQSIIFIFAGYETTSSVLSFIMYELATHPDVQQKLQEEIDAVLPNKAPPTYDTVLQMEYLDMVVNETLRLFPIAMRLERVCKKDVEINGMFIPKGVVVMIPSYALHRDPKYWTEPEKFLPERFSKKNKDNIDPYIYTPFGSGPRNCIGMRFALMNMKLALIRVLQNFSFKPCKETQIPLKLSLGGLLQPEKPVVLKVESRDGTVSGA
compound,measurement,setting,value
CCN(CC)c1ccc(/C=C/c2cc[n+](CCCCCCCCCC[n+]3ccc(/C=C/c4ccc(N(CC)CC)cc4)c(C)c3)cc2C)cc1 [YAT2150],CC50 at 96 h,[1],590 ± 160 nM
same,CC50,[2],590 to 18200 nM
same,CYP1A2 inhibition (% at 10 µM),CYP1A2,around 50%
same,Stability in human plasma (% remaining after 1 h),[3]; 1 h,100.0 ^7%
same,Stability in human plasma (% remaining after 2 h),[3]; 2 h,99.7 ^7%
same,Stability in human plasma (% remaining after 6 h),[3]; 6 h,91.3 ^7%
same,IC50,[4],1000 nM
